Measurements taken from patent US20060183122A1, “Fanc gene mutations in cancer” (priority 2002, published 2006).
“Also recorded” adds a separate entry of the source.

Experiments:
Format in all cases: cell-based
[1] = tested on: FaDu (FA-defective); assay: Survival study, Picogreen DNA quantitation
[2] = tested on: CAPAN1; assay: G2/M cell cycle arrest after MMC treatment (flow cytometry); details: MMC 2 hours, analyzed 48 hours later, arrest = twofold increase of 4N fraction vs untreated
Method: (§1) Cells were cultured in 25 cm^2 flasks and treated with MMC for two hours. Cells were washed with PBS and incubated with normal tissue culture medium for 48 hours.
(§2) Cells were obtained by trypsinization and resuspended in 3.7% paraformaldehyde in PBS, stained with Hoechst 33258 (Sigma), incubated at 4° C. for 10 min and analyzed using a flow cytometer. A “G2/M arrest” was defined as a twofold increase of the percentage of cells in G2/M, as compared to untreated cells.
(§3) The methods used to investigate cell “survival” upon treatment with MMC and cisplatin sum the effects of cell death, slow growth and the occurrence of a cell cycle arrest. To determine the potential contribution of an arrest, we analyzed cell cycle distributions of DNA content after MMC treatment. Six pancreatic cancer cell lines (BxPC3, MiaPaCa2, Su86.86, PL11, Hs766T and CAPAN1) and one HNSCC cell line (FaDu) were analyzed 48 hours after MMC treatment for 2 hours; a G2/M arrest was defined as a twofold increase of the fraction of cells containing 4N DNA content, as compared to untreated cells (FIG. 4). Hs766T arrested in G2/M at a MMC concentration of 100 nM, PL11 at 100 nM, CAPAN1 at 200 nM and FaDu at 500 nM, whereas control pancreatic cancer cell lines MiaPaCa2, Su86.86 and BxPC3 […] at MMC concentrations as high as 2 μM.

[3] = tested on: MiaPaCa2; assay: as above; details: MiaPaCa2 (control line); MMC 2 hours, analyzed 48 hours later; concentrations as high as
Method: as §1, §2, §3

[4] = tested on: FaDu; assay: as above; details: MMC 2 hours, analyzed 48 hours later, arrest = twofold increase of 4N fraction vs untreated
Method: as §1, §2, §3

[5] = tested on: BxPC3; assay: as above; details: BxPC3 (control line); MMC 2 hours, analyzed 48 hours later; concentrations as high as
Method: as §1, §2, §3

[6] = tested on: PL11; assay: as above; details: MMC 2 hours, analyzed 48 hours later, arrest = twofold increase of 4N fraction vs untreated
Method: as §1, §2, §3

[7] = tested on: Hs766T; assay: as above; details: MMC 2 hours, analyzed 48 hours later, arrest = twofold increase of 4N fraction vs untreated
Method: as §1, §2, §3

[8] = tested on: Su86.86; assay: as above; details: Su86.86 (control line); MMC 2 hours, analyzed 48 hours later; concentrations as high as
Method: as §1, §2, §3

[9] = tested on: CAPAN1 (BRCA2-mutated); assay: Survival study, Picogreen DNA quantitation
Method: (§4) Cells were incubated for a period of time long enough to allow non-treated cells to reach at least a threefold increase in fluorescence as compared to day 1 (3-7 days). Medium was changed every 48 hours. Cells were washed with PBS, and lysed in 100 μL sterile water. After 1 hour, 100 μl 0.5% Picogreen (Molecular Probes, Eugene, Oreg.) in tris-EDTA buffer was added to each well. After 45 minutes, wells were read in a fluorometer. Survival was calculated as a percentage; the wells without drugs were considered as 100 percent. Each experiment was done in duplicate; at least six experiments per cell line per concentration were performed.
(§5) The FA-defective pancreatic cancer cell lines Hs766T (FANCG-mutated), PL11 (FANCC-mutated) and CAPAN1 (BRCA2-mutated) and FA-proficient cell lines Su86.86 and MiaPaCa2 were treated with various concentrations of either MMC or cisplatin, and incubated in 96-well plates. Relative cell numbers were determined by measurement of doublestranded DNA content using Picogreen; wells containing no compound were used as controls. […] The FA-defective cell lines

[10] = tested on: Hs766T (FANCG-mutated); assay: Survival study, Picogreen DNA quantitation
Method: as §4, §5

[11] = tested on: PL11 (FANCC-mutated); assay: Survival study, Picogreen DNA quantitation
Method: as §4, §5

[12] = tested on: CAPAN1; assay: Survival study, manual (hemacytometer) cell counts; details: manual cell counts after 3-4 population doublings (FIG. 3C)
Method: (§6) Cell counts: 1×10^5 cells were plated in tissue culture flasks (25 cm^2). The next day, the medium was substituted with MMC-containing medium (range 0-4.5 μM). Cells were counted after 3-4 population doublings (4-7 days) using a hemacytometer. Four experiments per cell line/concentration were done.
(§7) To confirm the results obtained with the Picogreen assay, we also assessed sensitivity to MMC of the cell lines MiaPaCa2, Su86.86, CAPAN1 and Hs766T with manual (hemacytometer) cell counts. This assay confirmed their hypersensitivity to MMC (FIG. 3C). The FA-defective HNSCC cell line FaDu was also hypersensitive to MMC (FIG. 3D), but not to cisplatin (FIG. 3E), as compared to the FA-proficient HNSCC cell lines A-253 and Detroit 562.

[13] = tested on: Hs766T; assay: Survival study, manual (hemacytometer) cell counts; details: manual cell counts after 3-4 population doublings (FIG. 3C)
Method: as §6, §7

[14] = tested on: Su86.86; assay: Survival study, Picogreen DNA quantitation; details: compared to MiaPaCa2, less sensitive than CAPAN1 and PL11
Method: as §4, §5

[15] = 3-7 days, compared to MiaPaCa2 and Su86.86 (FIG. 3A)

## CO[C@@]12[C@H](COC(N)=O)C3=C(C(=O)C(C)=C(N)C3=O)N1C[C@@H]1N[C@@H]12 [MMC, mitomycin C]
[1]; compared to A-253 and Detroit 562 (FIG. 3D)
  Sensitivity to MMC: hypersensitive
[2]
  MMC concentration at which cells arrested in G2/M: 200 nM
[3]
  MMC concentration at which cells arrested in G2/M: 2 µM
[4]
  MMC concentration at which cells arrested in G2/M: 500 nM
[5]
  MMC concentration at which cells arrested in G2/M: 2 µM
[6]
  MMC concentration at which cells arrested in G2/M: 100 nM
[7]
  MMC concentration at which cells arrested in G2/M: 100 nM
[8]
  MMC concentration at which cells arrested in G2/M: 2 µM
[9]; [15]
  Sensitivity to MMC: hypersensitive; also recorded: increased sensitivity
[10]; [15]
  Sensitivity to MMC: hypersensitive; also recorded: increased sensitivity
[11]; [15]
  Sensitivity to MMC: hypersensitive; also recorded: increased sensitivity
[12]
  Sensitivity to MMC: hypersensitivity
[13]
  Sensitivity to MMC: hypersensitivity

## N.N.[Cl][Pt][Cl] [cisplatin]
[1]; compared to A-253 and Detroit 562 (FIG. 3E)
  Hypersensitive to cisplatin: not
[9]; 3-7 days (FIG. 3B)
  Sensitivity to cisplatin: hypersensitive
[10]; compared to MiaPaCa2, less sensitive than CAPAN1 and PL11
  Sensitivity to cisplatin: increased sensitivity
[11]; 3-7 days (FIG. 3B)
  Sensitivity to cisplatin: hypersensitive
[14]
  Sensitivity to cisplatin: increased sensitivity
